{"source": "patent US12576087B2", "about": "“Aryloxypiperidine pyrazole compounds as indoleamine 2,3-dioxygenase inhibitors” (Merck Sharp & Dohme LLC, priority 2018, dated 2026)", "target": "IDO1 (Homo sapiens, UniProt P14902)", "sequence (P14902 whole entry)": "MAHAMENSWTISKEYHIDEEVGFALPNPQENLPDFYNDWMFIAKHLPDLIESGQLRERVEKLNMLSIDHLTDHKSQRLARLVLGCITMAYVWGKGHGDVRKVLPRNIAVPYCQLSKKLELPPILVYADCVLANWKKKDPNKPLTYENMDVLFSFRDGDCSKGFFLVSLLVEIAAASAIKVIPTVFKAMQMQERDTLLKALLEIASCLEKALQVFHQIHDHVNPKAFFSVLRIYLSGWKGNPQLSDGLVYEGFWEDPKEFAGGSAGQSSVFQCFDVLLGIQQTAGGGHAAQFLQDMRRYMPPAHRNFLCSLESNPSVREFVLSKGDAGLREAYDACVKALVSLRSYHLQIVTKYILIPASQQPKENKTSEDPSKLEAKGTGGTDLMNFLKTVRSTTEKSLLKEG", "test": "IDO1 Human Whole Blood Assay", "assay_type": "cell-based", "description": "Compounds to be tested were serially diluted in ten 3-fold steps in DMSO starting from 10 mM. 3 μL of compound dilutions or DMSO alone were then dispensed from the dilution plate into a polypropylene 96-well assay plate containing 97 μL of RPMI medium using an Echo 555 acoustic liquid handler (Labcyte). LPS and IFNγ was prepared in RPMI medium to a 10× of final conc. (1000 ng/mL), final concentration is 100 ng/mL.\nHuman whole blood was drawn in sodium heparin coated tubes from healthy internal donors. 240 μL of blood was transferred to each of the wells of a v-bottom 96 well plate. 30 μL of compound was transferred from intermediate dilution plate, and incubated for 15 min. 30 μL from stimulants was then transferred to blood and mixed thoroughly. Plate was covered with breathable membrane and incubated at 37° C. for overnight (18 h).\nOn day 2, isotope labeled standard solutions of kunurenine and tryptophan was made in water at 10× concentration and 30 μL was added to the blood at 3 μM final concentration. The assay plates were centrifuged at 300×G for 10 min with no brake to separate plasma from red blood cells. 60 μL of plasma samples was removed without disturbing red blood cells. Plasma was diluted with RPMI in 1:1 ratio and proteins were precipitated out with two volumes of Acetonitrile. The plates were centrifuged at 4000×G for 60 min. 20 μL of supernatant was carefully transferred to a 384 well plate containing 40 μL of 0.1% formic acid in water and analyzed by LC/MS/MS.\nLC/MS/MS analyses were performed using Thermo Fisher's LX4-TSQ Quantum Ultra system. This system consists of four Agilent binary high-performance liquid chromatography (HPLC) pumps and a TSQ Quantum Ultra triple quadrupole MS/MS instrument. For each sample, 5 μL were injected onto an Atlantis T3 column (2.1 mm×150 mm, 3 μm particle size) from Waters. The mobile phase gradient pumped at 0.8 mL/min was used to elute the analytes from the column at 25° C. The elution started at 0% B increasing linearly to 25% B at 6.5 min, holding at 25% for 1 min, re-equilibrating to 10 min. Mobile phase A consisted of 0.1% formic acid in water. Mobile phase B consisted of 0.1% of formic acid in acetonitrile. Data were acquired in positive mode using a HESI interface. The operational parameters for the TSQ Quantum Ultra instrument were a spray voltage of 4000 V, capillary temperature of 380° C., vaporizer temperature 400° C., shealth gas 60 arbitrary units, Aux gas 20 arbitrary units, tube lens 85 and collision gas 1.2 mTorr. SRM chromatograms of kynurenine (Q1: 209.2>Q3:94.0) and internal standard (Q1: 215.3>Q3:98.2) were collected for 90 sec. The peak area was integrated by Xcalibur Quan software. The ratios between the kynurenine generated in the reaction and 2D6-Kynurenine spiked-in internal standard were used to generate percentage inhibition and IC50 values. Compounds were titrated and IC50's were calculated by 4 parameter sigmoidal curve fitting formula.", "key": {"[1]": {"settings": "WBLD taken as whole blood, read-out: WBLD IC50"}, "[2]": {"settings": "human whole blood, LPS and IFNγ 100 ng/mL, 18 h, kynurenine by LC/MS/MS, read-out: IDO1 human whole blood assay, IC50"}}, "note": "Read-outs that look alike come from different tables or passages of the source.", "data": [{"smiles": "Cc1cc(F)ccc1OC1CCN(C(=O)Cn2nc(C(=O)N3CC[C@H](O)[C@H](F)C3)c3c2CCCC3)CC1", "note": "(racemic) [Example 77, 1-[4-(4-fluoro-2-methyl-phenoxy)-1-piperidyl]-2-[3-[rac-(3R,4S)-3-fluoro-4-hydroxy-piperidine-1-carbonyl]-4,5,6,7-tetrahydroindazol-1-yl]ethanone]", "values": [{"measurement": "IC50", "setting": "[1]", "value": 267, "unit": "nM"}]}, {"smiles": "O=C(CO)N1CCN(C(=O)c2nn(CC(=O)N3CCC(Oc4ccccc4Cl)C4CC43)c3c2[C@@H]2C[C@@H]2C3)CC1", "note": "(single isomer, unassigned) [Example 170]", "values": [{"measurement": "IC50", "setting": "[1]", "value": 102, "unit": "nM"}]}, {"smiles": "O=C(c1nn(CC(=O)N2CCC(Oc3ccccc3Cl)C3CC32)c2c1[C@@H]1C[C@@H]1C2)N1CCC(OCCO)CC1", "note": "(single isomer, unassigned) [Example 171]", "values": [{"measurement": "IC50", "setting": "[1]", "value": 150, "unit": "nM"}]}, {"smiles": "Cc1ccccc1OC1CCN(C(=O)Cn2nc(C(=O)N3CCN(C(=O)CO)CC3)c3c2C[C@H]2C[C@@H]32)CC1", "note": "[Example 2, 2-Hydroxy-1-(4-((3bR,4aR)-1-(2-oxo-2-(4-(o-tolyloxy)piperidin-1-yl)ethyl)-3b,4,4a,5-tetrahydro-1H-cyclopropa[3,4]cyclopenta[1,2-c]pyrazole-3-carbonyl)piperazin-1-yl)ethanone]", "values": [{"measurement": "IC50", "setting": "[1]", "value": 13, "unit": "nM"}]}, {"smiles": "C[C@@H]1C[C@H](Oc2ccccc2Cl)CCN1C(=O)Cn1nc(C(=O)N2CCN(C(=O)CO)CC2)c2c1C[C@H]1C[C@@H]21", "note": "[Example 4, 1-((2R,4R)-4-(2-chlorophenoxy)-2-methylpiperidin-1-yl)-2-((3bR,4aR)-3-(4-(2-hydroxyacetyl)piperazine-1-carbonyl)-3b,4,4a,5-tetrahydro-1H-cyclopropa[3,4]cyclopenta[1,2-c]pyrazol-1-yl)ethanone]", "values": [{"measurement": "IC50", "setting": "[1]", "value": 315, "unit": "nM"}]}, {"smiles": "NC(=O)CN1CCN(C(=O)c2nn(CC(=O)N3CCC(Oc4ccccc4Cl)CC3)c3c2CCCC3)CC1", "note": "[Example 5, 2-(4-(1-(2-(4-(2-chlorophenoxy)piperidin-1-yl)-2-oxoethyl)-4,5,6,7-tetrahydro-1H-indazole-3-carbonyl)piperazin-1-yl)acetamide]", "values": [{"measurement": "IC50", "setting": "[2]", "value": 543, "unit": "nM"}]}, {"smiles": "CC(=O)NC1CCN(C(=O)c2nn(CC(=O)N3CCC(Oc4ccccc4Cl)CC3)c3c2CCCC3)CC1", "note": "[Example 6, N-(1-(1-(2-(4-(2-chlorophenoxy)piperidin-1-yl)-2-oxoethyl)-4,5,6,7-tetrahydro-1H-indazole-3-carbonyl)piperidin-4-yl)acetamide]", "values": [{"measurement": "IC50", "setting": "[1]", "value": 596, "unit": "nM"}]}, {"smiles": "C[C@@H]1C[C@H](Oc2ncccc2C(F)(F)F)CCN1C(=O)Cn1nc(C(=O)N2CCC(OCCO)CC2)c2c1C[C@H]1C[C@@H]21", "note": "[Example 8, 2-((3bR,4aR)-3-(4-(2-hydroxyethoxy)piperidine-1-carbonyl)-3b,4,4a,5-tetrahydro-1H-cyclopropa[3,4]cyclopenta[1,2-c]pyrazol-1-yl)-1-((2R,4R)-2-methyl-4-((3-(trifluoromethyl)pyridin-2-yl)oxy)piperidin-1-yl)ethanone]", "values": [{"measurement": "IC50", "setting": "[1]", "value": 212, "unit": "nM"}]}, {"smiles": "CCOC(=O)c1nn(CC(=O)N2CC[C@@H](Oc3ccccc3Cl)C[C@H]2C)c2c1CCCC2", "note": "[Example 11, ethyl 1-(2-((2R,4R)-4-(2-chlorophenoxy)-2-methylpiperidin-1-yl)-2-oxoethyl)-4,5,6,7-tetrahydro-1H-indazole-3-carboxylate]", "values": [{"measurement": "IC50", "setting": "[2]", "value": 378, "unit": "nM"}]}, {"smiles": "Cc1ccccc1OC1CCN(C(=O)Cn2nc(C(=O)N3CC[C@H](O)[C@H](F)C3)c3c2C[C@H]2C[C@@H]32)CC1", "note": "[Example 16, 2-((3bR,4aR)-3-((3R,4S)-3-fluoro-4-hydroxypiperidine-1-carbonyl)-3b,4,4a,5-tetrahydro-1H-cyclopropa[3,4]cyclopenta[1,2-c]pyrazol-1-yl)-1-(4-(o-tolyloxy)piperidin-1-yl)ethanone]", "values": [{"measurement": "IC50", "setting": "[1]", "value": 46.7, "unit": "nM"}]}, {"smiles": "Cc1ccccc1OC1CCN(C(=O)Cn2nc(C(=O)N3CC[C@H](O)C[C@@H]3C)c3c2CCCC3)CC1", "note": "[Example 17, 2-(3-((2S,4S)-4-hydroxy-2-methylpiperidine-1-carbonyl)-4,5,6,7-tetrahydro-1H-indazol-1-yl)-1-(4-(o-tolyloxy)piperidin-1-yl)ethanone]", "values": [{"measurement": "IC50", "setting": "[1]", "value": 114, "unit": "nM"}]}, {"smiles": "Cc1ccccc1OC1CCN(C(=O)Cn2nc(C(=O)N3CCC(O)CC3)c3c2CCCC3)CC1", "note": "[Example 18, 2-(3-(4-hydroxypiperidine-1-carbonyl)-4,5,6,7-tetrahydro-1H-indazol-1-yl)-1-(4-(o-tolyloxy)piperidin-1-yl)ethanone]", "values": [{"measurement": "IC50", "setting": "[1]", "value": 64, "unit": "nM"}]}, {"smiles": "Cc1ccccc1OC1CCN(C(=O)Cn2nc(C(=O)N3CCC(OCCO)CC3)c3c2CCC3)CC1", "note": "[Example 19, 2-(3-(4-(2-hydroxyethoxy)piperidine-1-carbonyl)-5,6-dihydrocyclopenta[c]pyrazol-1(4H)-yl)-1-(4-(o-tolyloxy)piperidin-1-yl)ethanone]", "values": [{"measurement": "IC50", "setting": "[1]", "value": 27.3, "unit": "nM"}]}, {"smiles": "Cc1ccccc1OC1CCN(C(=O)Cn2nc(C(=O)N3CCC(OCCO)CC3)c3c2CCCC3)CC1", "note": "[Example 20, 2-(3-(4-(2-hydroxyethoxy)piperidine-1-carbonyl)-4,5,6,7-tetrahydro-1H-indazol-1-yl)-1-(4-(o-tolyloxy)piperidin-1-yl)ethanone]", "values": [{"measurement": "IC50", "setting": "[1]", "value": 20, "unit": "nM"}]}, {"smiles": "Cc1ccccc1OC1CCN(C(=O)Cn2nc(C(=O)N3CCC(O)CC3)c3c2C[C@H]2C[C@@H]32)CC1", "note": "[Example 21, 2-((3bR,4aR)-3-(4-hydroxypiperidine-1-carbonyl)-3b,4,4a,5-tetrahydro-1H-cyclopropa[3,4]cyclopenta[1,2-c]pyrazol-1-yl)-1-(4-(o-tolyloxy)piperidin-1-yl)ethanone]", "values": [{"measurement": "IC50", "setting": "[1]", "value": 40.2, "unit": "nM"}]}, {"smiles": "Cc1ccccc1OC1CCN(C(=O)Cn2nc(C(=O)N3CCC(O)(C(F)F)CC3)c3c2CCCC3)CC1", "note": "[Example 22, 2-(3-(4-(difluoromethyl)-4-hydroxypiperidine-1-carbonyl)-4,5,6,7-tetrahydro-1H-indazol-1-yl)-1-(4-(o-tolyloxy)piperidin-1-yl)ethanone]", "values": [{"measurement": "IC50", "setting": "[1]", "value": 92.4, "unit": "nM"}]}, {"smiles": "Cc1ccccc1OC1CCN(C(=O)Cn2nc(C(=O)N3CC[C@H](O)[C@@H](F)C3)c3c2CCCC3)CC1", "note": "[Example 23, 2-(3-((3S,4S)-3-fluoro-4-hydroxypiperidine-1-carbonyl)-4,5,6,7-tetrahydro-1H-indazol-1-yl)-1-(4-(o-tolyloxy)piperidin-1-yl)ethanone]", "values": [{"measurement": "IC50", "setting": "[1]", "value": 22.9, "unit": "nM"}]}, {"smiles": "CC(=O)NC1CCN(C(=O)c2nn(CC(=O)N3CCC(Oc4ccccc4C)CC3)c3c2CCCC3)CC1", "note": "[Example 24, N-(1-(1-(2-oxo-2-(4-(o-tolyloxy)piperidin-1-yl)ethyl)-4,5,6,7-tetrahydro-1H-indazole-3-carbonyl)piperidin-4-yl)acetamide]", "values": [{"measurement": "IC50", "setting": "[1]", "value": 314, "unit": "nM"}]}, {"smiles": "Cc1ccccc1OC1CCN(C(=O)Cn2nc(C(=O)N3CCC(O)(CF)CC3)c3c2CCCC3)CC1", "note": "[Example 26, 2-(3-(4-(fluoromethyl)-4-hydroxypiperidine-1-carbonyl)-4,5,6,7-tetrahydro-1H-indazol-1-yl)-1-(4-(o-tolyloxy)piperidin-1-yl)ethanone]", "values": [{"measurement": "IC50", "setting": "[1]", "value": 93.8, "unit": "nM"}]}, {"smiles": "Cc1ccccc1OC1CCN(C(=O)Cn2nc(C(=O)N3CC[C@@H](O)[C@@H](F)C3)c3c2C[C@H]2C[C@@H]32)CC1", "note": "[Example 27, 2-((3bR,4aR)-3-((3S,4R)-3-fluoro-4-hydroxypiperidine-1-carbonyl)-3b,4,4a,5-tetrahydro-1H-cyclopropa[3,4]cyclopenta[1,2-c]pyrazol-1-yl)-1-(4-(o-tolyloxy)piperidin-1-yl)ethanone]", "values": [{"measurement": "IC50", "setting": "[1]", "value": 26.3, "unit": "nM"}]}, {"smiles": "CC(=O)NC1CCN(C(=O)c2nn(CC(=O)N3CCC(Oc4ccccc4C)CC3)c3c2[C@@H]2C[C@@H]2C3)CC1", "note": "[Example 29, N-(1-((3bR,4aR)-1-(2-oxo-2-(4-(o-tolyloxy)piperidin-1-yl)ethyl)-3b,4,4a,5-tetrahydro-1H-cyclopropa[3,4]cyclopenta[1,2-c]pyrazole-3-carbonyl)piperidin-4-yl)acetamide]", "values": [{"measurement": "IC50", "setting": "[1]", "value": 114, "unit": "nM"}, {"measurement": "IC50", "setting": "[2]", "value": 625, "unit": "nM"}]}, {"smiles": "Cc1ccccc1OC1CCN(C(=O)Cn2nc(C(=O)N3CCC(F)(CO)CC3)c3c2CCC3)CC1", "note": "[Example 30, 2-(3-(4-fluoro-4-(hydroxymethyl)piperidine-1-carbonyl)-5,6-dihydrocyclopenta[c]pyrazol-1(4H)-yl)-1-(4-(o-tolyloxy)piperidin-1-yl)ethanone]", "values": [{"measurement": "IC50", "setting": "[1]", "value": 188, "unit": "nM"}]}, {"smiles": "Cc1ccccc1OC1CCN(C(=O)Cn2nc(C(=O)N3CC[C@H](O)[C@H](F)C3)c3c2CCCC3)CC1", "note": "[Example 31, 2-(3-((3R,4S)-3-fluoro-4-hydroxypiperidine-1-carbonyl)-4,5,6,7-tetrahydro-1H-indazol-1-yl)-1-(4-(o-tolyloxy)piperidin-1-yl)ethanone]", "values": [{"measurement": "IC50", "setting": "[1]", "value": 590, "unit": "nM"}]}]}
